Results: ChEMBL document CHEMBL2311270, “Additional acetyl cholinesterase inhibitory property of diaryl pyrazoline derivatives” (Bioorg Med Chem Lett, 2013)
Calls of active or inactive are those of the source. The calls are words filed in the database; no cut-off is given here.

Tests used:
Acetylcholinesterase = Acetylcholinesterase (Homo sapiens, UniProt P22303)
Description: Inhibition of human erythrocyte AChE using acetylthiocholine iodide as substrate after 60 mins by Ellman's method

[1] = biological target: Cholinesterase (Equus caballus) (UniProt P81908); assay: Inhibition of equine serum BChE using butyrylthiocholine iodide as substrate up to 100 nM after 60 mins by Ellman's method
Sequence of Cholinesterase (Equus caballus) (P81908 whole entry): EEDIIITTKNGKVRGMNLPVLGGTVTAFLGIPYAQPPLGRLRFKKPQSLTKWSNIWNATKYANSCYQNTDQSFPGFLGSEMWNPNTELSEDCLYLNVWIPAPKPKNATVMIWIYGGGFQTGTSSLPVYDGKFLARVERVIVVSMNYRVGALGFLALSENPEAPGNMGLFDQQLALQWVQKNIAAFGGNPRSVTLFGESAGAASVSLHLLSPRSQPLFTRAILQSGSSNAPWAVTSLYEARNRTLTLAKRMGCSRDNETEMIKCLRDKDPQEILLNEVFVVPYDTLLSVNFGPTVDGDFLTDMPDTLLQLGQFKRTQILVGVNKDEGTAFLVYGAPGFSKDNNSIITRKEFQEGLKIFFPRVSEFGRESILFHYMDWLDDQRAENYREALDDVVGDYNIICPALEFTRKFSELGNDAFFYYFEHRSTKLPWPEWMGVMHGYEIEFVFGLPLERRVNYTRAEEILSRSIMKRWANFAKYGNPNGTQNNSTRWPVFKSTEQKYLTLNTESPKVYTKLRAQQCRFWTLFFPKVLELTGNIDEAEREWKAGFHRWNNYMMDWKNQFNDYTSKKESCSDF

Sequence of Acetylcholinesterase (P22303 whole entry): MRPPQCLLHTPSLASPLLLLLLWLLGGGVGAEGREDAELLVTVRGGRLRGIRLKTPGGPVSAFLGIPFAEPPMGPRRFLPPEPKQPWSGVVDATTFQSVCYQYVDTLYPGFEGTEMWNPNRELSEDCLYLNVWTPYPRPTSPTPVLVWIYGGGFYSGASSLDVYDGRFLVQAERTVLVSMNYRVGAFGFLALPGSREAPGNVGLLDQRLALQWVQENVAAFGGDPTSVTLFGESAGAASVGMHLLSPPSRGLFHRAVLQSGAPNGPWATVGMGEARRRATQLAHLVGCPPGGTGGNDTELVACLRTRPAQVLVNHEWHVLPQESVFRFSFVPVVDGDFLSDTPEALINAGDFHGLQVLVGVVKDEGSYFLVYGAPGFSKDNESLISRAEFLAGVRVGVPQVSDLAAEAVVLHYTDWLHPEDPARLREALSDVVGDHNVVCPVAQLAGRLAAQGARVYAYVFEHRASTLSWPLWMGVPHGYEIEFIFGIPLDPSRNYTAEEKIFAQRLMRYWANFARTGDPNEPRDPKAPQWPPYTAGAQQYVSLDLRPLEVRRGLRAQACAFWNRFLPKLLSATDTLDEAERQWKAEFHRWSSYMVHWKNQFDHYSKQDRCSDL

| Structure (SMILES) | Ki (Acetylcholinesterase) [nM] | inhibition [1] |
| --- | --- | --- |
| Oc1ccc([C@@H]2CC(c3c4ccccc4cc4ccccc34)=NN2)cc1 | > 100 | – |
| Oc1ccccc1[C@@H]1CC(c2c3ccccc3cc3ccccc23)=NN1 | 24.4 | inactive |
| O=[N+]([O-])c1cccc([C@@H]2CC(c3c4ccccc4cc4ccccc34)=NN2)c1 | 20.6 | inactive |
| c1ccc([C@@H]2CC(c3c4ccccc4cc4ccccc34)=NN2)cc1 | 30.2 | inactive |
| COc1ccc([C@@H]2CC(c3c4ccccc4cc4ccccc34)=NN2)cc1 | 25.4 | inactive |
| Clc1ccc([C@@H]2CC(c3c4ccccc4cc4ccccc34)=NN2)cc1 | – | inactive |
| Oc1ccc([C@@H]2CC(c3c4ccccc4cc4ccccc34)=NN2)c(O)c1 | 7.2 | inactive |
| c1ccc([C@@H]2CC(c3c4ccccc4cc4ccccc34)=NN2)nc1 | 41.3 | inactive |
| Cc1ccc([C@@H]2CC(c3c4ccccc4cc4ccccc34)=NN2)cc1 | > 100 | – |
| O=[N+]([O-])c1ccc([C@@H]2CC(c3c4ccccc4cc4ccccc34)=NN2)cc1 | > 100 | – |
